Reference: patent US6627648B1, “Pharmaceutical compositions and methods for use” (Targacept, Inc., priority 1999, dated 2003)

Key:
[1] = molecular target: T1, muscle-type nicotinic acetylcholine receptors (Homo sapiens, UniProt P02708+P07510+Q07001); experiment: Determination of interaction with muscle receptors; assay type: cell-based; conditions: maximal activation as percentage of maximal activation induced by (S)-(-)-nicotine; for Emax: read-out: effect at muscle sites (Emax)
T1 construct: endogenous in cells; host or cells: TE671/RD (own knowledge of the cited US 5,597,919)
Procedure: (§1) The determination of the interaction of the compounds with muscle receptors was carried out in accordance with the techniques described in U.S. Pat. No. 5,597,919 to Dull et al. The maximal activation for individual compounds (Emax) was determined as a percentage of the maximal activation induced by (S)-(−)-nicotine. Reported Emax values represent the amount released relative to (S)-(−)-nicotine on a percentage basis. […] Such preferable compounds have the capability to activate human CNS receptors without activating muscle-type nicotinic acetylcholine receptors. Thus, there is provided a therapeutic window for utilization in the treatment of CNS disorders. […] The compounds begin to cause muscle effects only when employed in amounts of many times those required to activate dopamine release.

[2] = system: ganglia-type nicotinic acetylcholine receptors; experiment: Determination of interaction with ganglion receptors; assay type: cell-based; conditions: maximal activation as percentage of maximal activation induced by (S)-(-)-nicotine
Procedure: as §1, with “ganglionic” for “muscle”, “ganglia-type” for “muscle-type”, “cause” for “cause muscle”, “effects at ganglia” for “effects”

[3] = molecular target: CNS nicotinic receptors (Rattus norvegicus, UniProt P09483+P12390); experiment: Determination of binding to relevant receptor sites; conditions: inhibition constants calculated from IC50 values by the method of Cheng et al.
Procedure: Binding of the compounds to relevant receptor sites was determined in accordance with the techniques described in U.S. Pat. No. 5,597,919 to Dull et al. Inhibition constants (Ki values), reported in nM, were calculated from the IC50 values using the method of Cheng et al., Biochem, Pharmacol. 22:3099 (1973).

T1 sequence (P02708 21-457): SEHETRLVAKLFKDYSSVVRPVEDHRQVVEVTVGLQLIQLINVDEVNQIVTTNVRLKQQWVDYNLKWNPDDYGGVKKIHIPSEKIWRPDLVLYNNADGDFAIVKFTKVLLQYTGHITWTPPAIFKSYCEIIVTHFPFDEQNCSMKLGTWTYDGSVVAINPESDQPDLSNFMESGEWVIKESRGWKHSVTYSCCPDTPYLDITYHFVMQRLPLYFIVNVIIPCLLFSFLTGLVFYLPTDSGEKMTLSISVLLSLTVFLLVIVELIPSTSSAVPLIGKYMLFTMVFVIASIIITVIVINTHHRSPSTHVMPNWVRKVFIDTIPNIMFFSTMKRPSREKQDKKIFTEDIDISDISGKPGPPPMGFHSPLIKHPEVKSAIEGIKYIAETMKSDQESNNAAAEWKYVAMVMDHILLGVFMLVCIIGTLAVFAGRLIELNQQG
T1 sequence (P11230 24-501 partner): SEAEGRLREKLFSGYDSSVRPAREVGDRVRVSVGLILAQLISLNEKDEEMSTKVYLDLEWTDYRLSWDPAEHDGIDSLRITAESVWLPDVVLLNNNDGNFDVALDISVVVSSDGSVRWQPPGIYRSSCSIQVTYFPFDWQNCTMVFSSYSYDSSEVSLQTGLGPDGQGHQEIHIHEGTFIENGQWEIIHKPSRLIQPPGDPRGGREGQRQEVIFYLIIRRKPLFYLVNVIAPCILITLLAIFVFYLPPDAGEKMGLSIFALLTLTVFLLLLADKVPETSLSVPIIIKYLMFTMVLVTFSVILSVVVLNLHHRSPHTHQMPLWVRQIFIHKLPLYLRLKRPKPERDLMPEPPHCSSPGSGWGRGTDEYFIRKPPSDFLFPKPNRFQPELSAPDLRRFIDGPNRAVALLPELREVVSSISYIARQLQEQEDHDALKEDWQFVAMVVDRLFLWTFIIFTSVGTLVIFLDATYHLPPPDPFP
T1 sequence (Q07001 22-517): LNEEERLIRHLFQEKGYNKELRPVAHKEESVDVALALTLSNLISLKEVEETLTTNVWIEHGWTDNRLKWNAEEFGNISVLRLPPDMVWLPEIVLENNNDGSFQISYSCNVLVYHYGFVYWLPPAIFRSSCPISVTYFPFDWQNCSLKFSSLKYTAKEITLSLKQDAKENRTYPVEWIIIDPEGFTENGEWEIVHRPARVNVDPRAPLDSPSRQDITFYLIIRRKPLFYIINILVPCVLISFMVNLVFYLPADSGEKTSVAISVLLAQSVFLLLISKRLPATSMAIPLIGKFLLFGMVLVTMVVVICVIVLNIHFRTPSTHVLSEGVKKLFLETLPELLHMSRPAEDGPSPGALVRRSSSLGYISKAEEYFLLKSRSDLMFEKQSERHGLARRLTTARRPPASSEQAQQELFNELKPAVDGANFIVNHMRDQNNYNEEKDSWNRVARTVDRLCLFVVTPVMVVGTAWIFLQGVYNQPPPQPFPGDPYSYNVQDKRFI
T1 sequence (P07510 23-517): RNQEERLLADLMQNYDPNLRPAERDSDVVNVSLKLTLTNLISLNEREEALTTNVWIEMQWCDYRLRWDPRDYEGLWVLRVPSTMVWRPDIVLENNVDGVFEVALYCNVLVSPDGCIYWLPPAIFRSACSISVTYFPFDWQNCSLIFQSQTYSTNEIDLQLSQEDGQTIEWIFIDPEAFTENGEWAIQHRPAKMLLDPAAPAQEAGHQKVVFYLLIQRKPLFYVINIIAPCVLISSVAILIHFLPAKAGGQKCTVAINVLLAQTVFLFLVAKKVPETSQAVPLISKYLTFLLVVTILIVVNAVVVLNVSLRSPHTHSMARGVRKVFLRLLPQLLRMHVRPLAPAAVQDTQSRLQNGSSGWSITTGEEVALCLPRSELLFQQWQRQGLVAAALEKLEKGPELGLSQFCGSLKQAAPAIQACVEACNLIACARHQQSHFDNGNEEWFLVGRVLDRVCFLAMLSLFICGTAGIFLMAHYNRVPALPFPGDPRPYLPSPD
CNS nicotinic receptors, sequence (P09483 31-630): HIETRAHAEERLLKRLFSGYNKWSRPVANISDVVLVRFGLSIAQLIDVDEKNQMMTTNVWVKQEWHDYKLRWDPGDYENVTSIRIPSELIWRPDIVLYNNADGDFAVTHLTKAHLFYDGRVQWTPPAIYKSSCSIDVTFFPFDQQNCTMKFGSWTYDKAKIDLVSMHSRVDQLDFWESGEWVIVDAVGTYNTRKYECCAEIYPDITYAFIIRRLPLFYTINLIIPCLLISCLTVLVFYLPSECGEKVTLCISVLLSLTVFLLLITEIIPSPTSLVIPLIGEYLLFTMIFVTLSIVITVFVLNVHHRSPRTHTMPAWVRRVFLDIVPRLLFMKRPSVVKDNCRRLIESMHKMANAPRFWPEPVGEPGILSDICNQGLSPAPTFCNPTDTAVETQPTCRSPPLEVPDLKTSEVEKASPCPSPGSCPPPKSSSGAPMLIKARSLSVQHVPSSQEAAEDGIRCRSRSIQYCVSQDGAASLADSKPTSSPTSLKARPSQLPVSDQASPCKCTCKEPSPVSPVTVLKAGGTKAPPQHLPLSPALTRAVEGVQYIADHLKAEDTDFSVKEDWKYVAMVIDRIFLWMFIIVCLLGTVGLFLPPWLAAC
CNS nicotinic receptors, sequence (P12390 25-500): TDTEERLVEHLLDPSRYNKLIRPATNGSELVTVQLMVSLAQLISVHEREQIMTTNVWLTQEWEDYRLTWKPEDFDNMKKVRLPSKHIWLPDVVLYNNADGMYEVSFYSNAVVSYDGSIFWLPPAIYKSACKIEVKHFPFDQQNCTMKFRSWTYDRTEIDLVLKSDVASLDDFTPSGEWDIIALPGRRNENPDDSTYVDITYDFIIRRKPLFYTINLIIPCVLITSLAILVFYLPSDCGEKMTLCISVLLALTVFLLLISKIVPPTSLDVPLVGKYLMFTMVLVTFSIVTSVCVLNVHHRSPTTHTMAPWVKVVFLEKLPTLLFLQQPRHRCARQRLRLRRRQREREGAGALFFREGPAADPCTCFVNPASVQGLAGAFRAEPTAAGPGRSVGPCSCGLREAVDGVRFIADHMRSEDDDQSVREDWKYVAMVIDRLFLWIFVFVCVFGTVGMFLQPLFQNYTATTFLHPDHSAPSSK

| Compound | effect at muscle sites (Emax) [1] [%] | effect at ganglia sites (Emax) [2] [%] | Emax [1] [%] | Ki [3] [µM] |
| --- | --- | --- | --- | --- |
| Ethyl(3-(3-pyridyloxy)propyl)amine Hemigalactarate [Example 22] | 13 | 13 |  |  |
| 4-(3-Pyridyloxy)butylamine Hemigalactarate [Example 12] | 0 | 11 |  |  |
| Methyl(3-(3-nitrophenoxy)propyl)amine Hemigalactarate [Example 28] | 10 | 9 |  |  |
| 3-(5-Chloro-3-pyridyloxy)propylamine Hemigalactarate [Example 15] | 0 | 4 |  |  |
| Methyl(3-(5-(phenylmethoxy)(3-pyridyloxy))propyl)amine Hemigalactarate [Example 19] | 1 | 3 |  |  |
| Methyl(2-(3-pyridyloxy)ethyl)amine Hemigalactarate [Example 8] | 0 | 0 |  |  |
| Methyl(3-(6-methyl(3-pyridyloxy))propyl)amine Hemigalactarate [Example 20] | 0 |  |  |  |
| Methyl(3-(5-methoxy-3-pyridyloxy)propyl)amine Hemigalactarate [Example 17] | 10 | 5 |  |  |
| Methyl(1-methyl-3-(3-pyridyloxy)propyl)amine Hemigalactarate [Example 26] | 16 | 20 |  |  |
| Methyl(3-(5-isopropoxy-3-pyridyloxy)propyl)amine Monogalactarate [Example 18] | 22 | 0 |  |  |
| Methyl(3-(2-methyl(3-pyridyloxy))propyl)amine Hemigalactarate [Example 21] | 0 | 15 |  |  |
| Cl.Cl.c1cncc(OC2CCNCC2)c1 [Example 35, 3-(4-Piperidinyloxy)pyridine dihydrochloride] |  | 9 | 16 |  |
| Dimethyl(3-(3-pyridyloxy)propyl)amine Hemigalactarate [Example 11] | 8 | 5 |  |  |
| Cyclopropyl(3-(3-pyridyloxy)propyl)amine Hemigalactarate [Example 25] | 9 | 10 |  |  |
| (3-(3-Aminophenoxy)propyl)methylamine Hemigalactarate [Example 30] | 11 | 5 |  |  |
| CN(C)CCOc1cccnc1 [Example 9, Dimethyl(2-(3-pyridyloxy)ethylamine Hemigalactarate] |  | 0 | 0 |  |
| CNCCCSc1cncc(Br)c1 [Example 6, 3-(5-Bromo-3-pyridylthio))propyl)methylamine Hemigalactarate] |  |  |  | 40 |
| 3-(3-Pyridyloxy)propylamine Hemigalactarate [Example 10] | 0 | 0 |  |  |
| (3-(5-Chloro(3-pyridyloxy))propyl)methylamine Hemigalactarate [Example 16] | 16 | 7 |  |  |
